{"source": "paper PMC8353886", "about": "(ACS Medicinal Chemistry Letters, 2021)", "key": {"[1]": {"tested_on": "SARS-CoV-2 Spike pseudotyped particle (PP)", "test": "microbe, parasite or virus in culture", "type": "cell-based", "settings": "Severe acute respiratory syndrome coronavirus 2, read-out: SARS-CoV-2 PP IC50"}, "[2]": {"tested_on": "SARS-CoV-1", "settings": "cited from earlier work"}, "[3]": {"tested_on": "MERS", "settings": "cited from earlier work"}, "[4]": {"tested_on": "SARS-CoV-2", "settings": "in words; cited from earlier work"}}, "note": "pIC50: −log10 of the molar value.", "data": [{"molecule": "CN1[C@@H]2CC[C@H]1C[C@@H](OC(c1ccccc1)c1ccc(Cl)cc1)C2", "note": "(stereo partly shown) [Clobenztropine]", "values": [{"measurement": "pIC50", "setting": "[1]", "result": 4.90}]}, {"molecule": "CN1CCN(C(c2ccccc2)c2ccc(Cl)cc2)CC1", "note": "(stereo not shown) [CCZ, chlorcyclizine]", "values": [{"measurement": "inhibitory activity against SARS-CoV-1 in the PP entry assay", "setting": "[2]", "result": "inhibitory activities"}, {"measurement": "inhibitory activity against MERS in the PP entry assay", "setting": "[3]", "result": "inhibitory activities"}, {"measurement": "inhibitory activity against SARS-CoV-2 in the PP entry assay", "setting": "[4]", "result": "inhibitory activities"}]}]}
